Reference: article PMC10688625, “Evaluation of arsenic metabolism and tight junction injury after exposure to arsenite and monomethylarsonous acid using a rat in vitro blood–Brain barrier model” (PLOS ONE, 2023)
Where two headings read alike, the source gives them in different places.

Assays:
[1] = test system: rat in vitro-BBB model; conditions: 24 h
[2] = test system: ZO-1; type: cell-based, rat; conditions: 2 μM
[3] = test system: ZO-1; type: cell-based, rat
[4] = test system: claudin-5; type: cell-based, rat; conditions: 2 μM
[5] = test system: claudin-5; type: cell-based, rat
[6] = test system: rat in vitro-BBB model; type: cell-based
[7] = test system: rat in vitro-BBB model
[8] = test system: mouse brain slices; conditions: cited from earlier work
[9] = mouse, in vivo; cited from earlier work

## C[As](O)O [MMA^III, monomethylarsonous acid]
[1]; 0.1 μM
  Papp of sodium fluorescein: 1.90 ± 0.17 x 10-6 cm2/s
[1]; 1 μM
  Papp of sodium fluorescein: 2.78 ± 0.28 x 10-6 cm2/s
[1]; 2 μM
  Na-F values elevated compared to the control group: approximately 16 fold
  Papp of sodium fluorescein: 34.0 ± 4.97 x 10-6 cm2/s
[2]; 6 h
  % ZO-1 Area for control: 55.0 ± 11.2%
[2]; 24 h
  % ZO-1 Area for control: 59.1 ± 9.76%
[3]; 0.1 μM, 6 h
  ZO-1/β-actin: 48.7 ± 25.7
  ZO-1/β-actin ratio for control: 0.60 ± 0.25
[3]; 0.1 μM, 24 h
  ZO-1/β-actin: 41.0 ± 24.5
  ZO-1/β-actin ratio for control: 0.54 ± 0.33
[3]; 1 μM, 6 h
  ZO-1/β-actin: 44.7 ± 26.2
  ZO-1/β-actin ratio for control: 0.55 ± 0.26
[3]; 1 μM, 24 h
  ZO-1/β-actin: 71.6 ± 15.1
  ZO-1/β-actin ratio for control: 0.93 ± 0.19
[3]; 2 μM, 6 h
  ZO-1/β-actin: 16.6 ± 5.59
  ZO-1/β-actin ratio for control: 0.23 ± 0.15
[3]; 2 μM, 24 h
  ZO-1/β-actin: 28.7 ± 13.3
  ZO-1/β-actin ratio for control: 0.37 ± 0.15
[4]; 6 h
  % Claudin-5 Area for control: 46.6 ± 12.6%
[4]; 24 h
  % Claudin-5 Area for control: 37.2 ± 11.4%
[5]; 0.1 μM, 6 h
  Claudin-5/β-actin: 30.5 ± 3.26
  Claudin-5/β-actin ratio for control: 0.45 ± 0.19
[5]; 0.1 μM, 24 h
  Claudin-5/β-actin: 34.1 ± 25.6
  Claudin-5/β-actin ratio for control: 0.37 ± 0.23
[5]; 1 μM, 6 h
  Claudin-5/β-actin: 25.8 ± 16.7
  Claudin-5/β-actin ratio for control: 0.35 ± 0.16
[5]; 1 μM, 24 h
  Claudin-5/β-actin: 14.5 ± 4.52
  Claudin-5/β-actin ratio for control: 0.16 ± 0.06
[5]; 2 μM, 6 h
  Claudin-5/β-actin: 9.38 ± 5.97
  Claudin-5/β-actin ratio for control: 0.16 ± 0.15
[5]; 2 μM, 24 h
  Claudin-5/β-actin: 4.68 ± 1.30
  Claudin-5/β-actin ratio for control: 0.05 ± 0.02
[6]; 0.1 μM, 6 h
  %TEER: 109.7 ± 16.6%
[6]; 0.1 μM, 24 h
  %TEER: 87.9 ± 13.0%
[6]; 1 μM, 6 h
  %TEER: 61.6 ± 6.19%
[6]; 1 μM, 24 h
  %TEER: 45.6 ± 2.09%
[6]; 2 μM, 6 h
  %TEER: 9.17 ± 4.62%
[6]; 2 μM, 24 h
  %TEER: 3.31 ± 0.67%
[7]
  detection of dimethylarsinous acid as metabolite: no dimethylarsinous acid was detected
  fraction oxidized or methylated (converted, detoxified) within the BBB: Approximately 65%
[7]; 0–6 h
  Penetration rate (%) DMA^V: 4.03±0.52%
  Penetration rate (%) MMA^III: 7.63±0.79%
  Penetration rate (%) MMA^V: 8.27±1.55%
  percentage of arsenic in total penetration rate: DMA^V: (28.5) %
[7]; 0–24 h
  Penetration rate (%) DMA^V: 9.01±0.14%
  Penetration rate (%) MMA^III: 13.7±5.09%
  Penetration rate (%) MMA^V: 27.9±3.59%
  percentage of arsenic in total penetration rate: DMA^V: (21.4) %

## O=[As][O-].[Na+] [sodium arsenite]
[8]
  DMA^V formation in mouse brain slices: DMA^V was detected
[9]
  DMA^V in brain tissue: presence of DMA^V
